# Counter-ions that a name gives are not always drawn. Like-named read-outs stand apart in the source and are kept apart here.
# What was measured:
# [1] = target: GST-Syk Full Protein (human) (Homo sapiens, UniProt P43405); assay: Syk kinase inhibition test (HTRF method); type: biochemical
# Method in brief: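 HTRF read-out: after EDTA termination and 1 h with XL665-streptavidin and Eu-anti-phosphotyrosine, the 665/620 nm ratio was measured. The reaction ran 30 min at 20–25 °C with final 6.4 nM human GST-Syk, 250 nM biotinylated peptide, 100 μM ATP, pH 7.0 HEPES buffer, 2% DMSO.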
# [2] = system: cultured human mast cells; assay: Degranulation inhibition test using cultured human mast cells (IgE cross-linking, β-Hexosaminidase release); type: cell-based; conditions: Mast cell, cultured human mast cells, read-out: human degranulation ave. IC50
# Method in brief: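 Degranulation was triggered by anti-hIgE (10 μg/mL final, 30 min, 37 °C) after a 10-min compound pretreatment (DMSO 0.1%) of cord-blood CD34+-derived mast cells primed 5 days with IL-4 and IgE. β-Hexosaminidase in supernatant was measured with p-nitrophenyl-GlcNAc substrate (A405), expressed against water-lysed total; IC50 (M).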
# [3] = HTRF, 100 μM ATP, 30 min room temperature, average, read-out: sykHTRF ave IC50
# [4] = anti-hIgE stimulation, β-Hexosaminidase index, average
# [5] = Tables 1-x, compounds A, read-out: sykHTRF ave IC50
# [6] = Tables 2-x, thiophene compounds B, read-out: sykHTRK ave IC50
# [7] = Tables 2-x, thiophene compounds B
"IC50 [1, 3] [nM]","IC50 [2, 4] [nM]",SMILES,other results
< 100,> 1000,"Cc1ccnc(Nc2cccc(-c3cnc([C@H]4CC[C@H](CN)CC4)s3)n2)c1 [Compound A-219, trans-4-{5-[6-(4-methylpyridin-2-ylamino)pyridin-2-yl]thiazol-2-yl}cyclohexylmethylamine]",–
–,–,"Cc1ccnc(Nc2cccc(-c3cnc(N(C)Cc4ccc(CC(=O)O)cc4)s3)n2)c1 [Compound A-587, {4-[(N-methyl-N-{5-[6-(4-methylpyridin-2-ylamino)pyridin-2-yl]thiazol-2-yl}amino)methyl]phenyl}acetic acid dihydrochloride]","IC50 [1, 5]: < 100 nM; IC50 ([2]; Tables 1-x, compounds A): 100 to 1000 nM"
100 to 1000,100 to 1000,Cc1ccnc(Nc2cccc(-c3cnc([C@@H]4CCC(=O)N4C)s3)n2)c1 [Compound A-373],–
> 1000,> 1000,Cc1ccnc(Nc2cccc(-c3cnc([C@H](Cc4ccccc4)NC(=O)OC(C)(C)C)s3)n2)c1 [Compound A-39],–
–,–,Cc1ccnc(Nc2cccc(-c3ccc(C(O)CCO)s3)n2)c1 (stereo not drawn) [Compound B-54],"IC50 [1, 6]: 100 to 1000 nM; IC50 [2, 7]: 100 to 1000 nM"
< 100,100 to 1000,"Cc1ccnc(Nc2cccc(-c3cnc([C@@H]4CCC(=O)N4)s3)n2)c1 [Compound A-55, (S)-5-{5-[6-(4-methylpyridin-2-ylamino)pyridin-2-yl]thiazol-2-yl}pyrrolidin-2-one]",–
–,–,"CNC(=O)[C@@H]1CCCN1c1ncc(-c2cccc(Nc3cc(C)ccn3)n2)s1 [Compound A-488, N-methyl-(S)-1-{5-[6-(4-methylpyridin-2-ylamino)pyridin-2-yl]thiazol-2-yl}pyrrolidine-2-carboxamide dihydrochloride]","IC50 [1, 5]: < 100 nM; IC50 ([2]; Tables 1-x, compounds A): 100 to 1000 nM"
< 100,100 to 1000,"CC(=O)Nc1nc(C)c(-c2cncc(Nc3cc(C)ccn3)n2)s1 [Compound A-21, N-{4-methyl-5-[6-(4-methylpyridin-2-ylamino)pyrazin-2-yl]thiazol-2-yl}acetamide]",–
100 to 1000,> 1000,Cc1ccnc(Nc2cccc(-c3cnc(CN(C)C(=O)N(C)C)s3)n2)c1 [Compound A-357],–
100 to 1000,100 to 1000,COc1ccnc(Nc2cccc(-c3cnc([C@H]4CC[C@H](C(=O)N5CCC(O)CC5)CC4)s3)n2)c1 [Compound A-291],–
–,–,"Cc1ccnc(Nc2cccc(-c3cnc(N4CCC(C(C)C(=O)O)CC4)s3)n2)c1 (stereo not drawn) [Compound A-652, 2-(1-{5-[6-(4-methylpyridin-2-ylamino)pyridin-2-yl]thiazol-2-yl}piperidin-4-yl)propionic acid]","IC50 [1, 5]: < 100 nM; IC50 ([2]; Tables 1-x, compounds A): < 100 nM"
–,–,Cc1ccnc(Nc2cccc(-c3cccs3)n2)c1 [Compound B-27],"IC50 [1, 6]: 100 to 1000 nM; IC50 [2, 7]: > 1000 nM"
100 to 1000,> 1000,Cc1ccnc(Nc2cccc(-c3cnc(CN4CCN(CCO)CC4)s3)n2)c1 [Compound A-217],–
100 to 1000,100 to 1000,Cc1ccnc(Nc2cccc(-c3cnc([C@@H](O)CN(C)C)s3)n2)c1 [Compound A-375],–
–,–,"COC(CN(C)c1ncc(-c2cccc(Nc3cc(C)ccn3)n2)s1)OC [Compound A-457, N-(2,2-dimethoxyethyl)-N-methyl-N-{5-[6-(4-methylpyridin-2-ylamino)pyridin-2-yl]thiazol-2-yl}amine]","IC50 [1, 5]: < 100 nM; IC50 ([2]; Tables 1-x, compounds A): 100 to 1000 nM"
< 100,100 to 1000,"Cc1ccnc(Nc2cccc(-c3cnc(CCCCO)s3)n2)c1 [Compound A-132, 4-{5-[6-(4-methylpyridin-2-ylamino)pyridin-2-yl]thiazol-2-yl}butan-1-ol]",–
< 100,100 to 1000,"Cc1ccnc(Nc2cccc(-c3cnc([C@H]4CC[C@H](C(=O)N5C[C@@H](O)[C@@H](O)C5)CC4)s3)n2)c1 [Compound A-174, ((3R,4S)-3,4-dihydroxypyrrolidin-1-yl)-(trans-4-{5-[6-(4-methylpyridin-2-ylamino)pyridin-2-yl]thiazol-2-yl}cyclohexyl)methanone]",–
–,–,Cc1ccnc(Nc2cccc(-c3ccc(C(=O)C(C)C)s3)n2)c1 [Compound B-49],"IC50 [1, 6]: 100 to 1000 nM; IC50 [2, 7]: > 1000 nM"
–,–,"Cc1ccnc(Nc2cccc(-c3cnc(N4CCC[C@@H](CO)C4)s3)n2)c1 [Compound A-532, ((R)-1-{5-[6-(4-methylpyridin-2-ylamino)pyridin-2-yl]thiazol-2-yl}piperidin-3-yl)methanol]","IC50 [1, 5]: < 100 nM; IC50 ([2]; Tables 1-x, compounds A): < 100 nM"
< 100,100 to 1000,"Cc1ccnc(Nc2cccc(-c3sc(N4CCOCC4)nc3C)n2)c1 [Compound A-425, N-[6-(4-methyl-2-morpholin-4-ylthiazol-5-yl)pyridin-2-yl]-N-(4-methylpyridin-2-yl)amine]",–
< 100,100 to 1000,"Cc1ccnc(Nc2cccc(-c3cnc(C(O)Cc4ccc(O)cc4)s3)n2)c1 (stereo not drawn) [Compound A-362, 4-(2-hydroxy-2-{5-[6-(4-methylpyridin-2-ylamino)pyridin-2-yl]thiazol-2-yl}ethyl)phenol]",–

"IC50 [1, 3] [nM]","IC50 [2, 4] [nM]",SMILES,other results
100 to 1000,> 1000,COC(=O)CCNCc1ncc(-c2cccc(Nc3cc(C)ccn3)n2)s1 [Compound A-163],–
–,–,"Cc1ccnc(Nc2cccc(-c3cnc(N4CCN(C)CC4)s3)n2)c1 [Compound A-432, N-{6-[2-(4-methylpiperazin-1-yl)thiazol-5-yl]pyridin-2-yl}-N-(4-methylpyridin-2-yl)amine]","IC50 [1, 5]: < 100 nM; IC50 ([2]; Tables 1-x, compounds A): 100 to 1000 nM"
–,–,"CC(=O)NCC(=O)N1CCC(N(C)c2ncc(-c3cccc(Nc4cc(C)ccn4)n3)s2)CC1 [Compound A-461, N-{2-[4-(N′-methyl-N′-{5-[6-(4-methylpyridin-2-ylamino)pyridin-2-yl]thiazol-2-yl}amino)piperidin-1-yl]-2-oxoethyl}acetamide]","IC50 [1, 5]: < 100 nM; IC50 ([2]; Tables 1-x, compounds A): 100 to 1000 nM"
–,–,"COCCN(C)c1ncc(-c2cccc(Nc3cc(C)ccn3)n2)s1 [Compound A-520, N-(2-methoxyethyl)-N-methyl-N-{5-[6-(4-methylpyridin-2-ylamino)pyridin-2-yl]thiazol-2-yl}amine]","IC50 [1, 5]: < 100 nM; IC50 ([2]; Tables 1-x, compounds A): 100 to 1000 nM"
–,–,Cc1ccnc(Nc2cccc(-c3ccc(C(C)N)s3)n2)c1 (stereo not drawn) [Compound B-92],"IC50 [1, 6]: 100 to 1000 nM; IC50 [2, 7]: 100 to 1000 nM"
–,–,Cc1ccnc(Nc2cccc(-c3cc(C)c(C(=O)O)s3)n2)c1 [Compound B-37],"IC50 [1, 6]: 100 to 1000 nM; IC50 [2, 7]: > 1000 nM"
–,–,Cc1ccnc(Nc2cccc(-c3ccc(C(=NO)C(C)C)s3)n2)c1 [Compound B-50],"IC50 [1, 6]: 100 to 1000 nM; IC50 [2, 7]: > 1000 nM"
100 to 1000,100 to 1000,"CC(=O)N[C@@H](C)c1ncc(-c2cccc(Nc3cc(C)ccn3)n2)s1 [Compound A-10, N—((S)-1-{5-[6-(4-methylpyridin-2-ylamino)pyridin-2-yl]thiazol-2-yl}ethyl)acetamide]",–
100 to 1000,> 1000,Cc1ccnc(Nc2cccc(-c3cnc(C(=O)NC(C)(C)C(=O)O)s3)n2)c1 [Compound A-154],–
–,–,CC(=O)c1ccc(-c2cccc(Nc3cc(C4(C)OCCO4)ccn3)n2)s1 [Compound B-78],"IC50 [1, 6]: 100 to 1000 nM; IC50 [2, 7]: 100 to 1000 nM"
100 to 1000,> 1000,Cc1ccnc(Nc2cccc(-c3cnc(COCC(=O)N4CCC(O)CC4)s3)n2)c1 [Compound A-369],–
< 100,100 to 1000,"C/C(=N\OCCO)c1ncc(-c2cccc(Nc3cc(C)ccn3)n2)s1 [Compound A-35, 1-{5-[6-(4-methylpyridin-2-ylamino)pyridin-2-yl]thiazol-2-yl}ethanone 0-(2-hydroxyethyl)oxime]",–
–,–,"Cc1ccnc(Nc2cccc(-c3cnc(N(C)CC(=O)NCC(=O)O)s3)n2)c1 [Compound A-571, [2-(N-methyl-N-{5-[6-(4-methylpyridin-2-ylamino)pyridin-2-yl]thiazol-2-yl}amino)acetylamino]acetic acid dihydrochloride]","IC50 [1, 5]: < 100 nM; IC50 ([2]; Tables 1-x, compounds A): > 1000 nM"
100 to 1000,100 to 1000,Cc1ccnc(Nc2cccc(-c3cnc(C4CCN(C(=O)NCCO)CC4)s3)n2)c1 [Compound A-266],–
–,–,"Cc1ccnc(Nc2cccc(-c3cnc(N4CCN(CC(=O)O)C(=O)C4)s3)n2)c1 [Compound A-464, (4-{5-[6-(4-methylpyridin-2-ylamino)pyridin-2-yl]thiazol-2-yl}-2-oxopiperazin-1-yl)acetic acid dihydrochloride]","IC50 [1, 5]: < 100 nM; IC50 ([2]; Tables 1-x, compounds A): > 1000 nM"
100 to 1000,> 1000,Cc1ccnc(Nc2cccc(-c3cnc(CC(=O)OC(C)(C)C)s3)n2)c1 [Compound A-222],–
–,–,"COC(=O)c1ccnc(Nc2cccc(-c3ccc(C(C)=O)s3)n2)c1 [Compound B-53, 2-[6-(5-acetylthiophen-2-yl)pyridin-2-ylamino]isonicotinic acid methyl ester]","IC50 [1, 6]: < 100 nM; IC50 [2, 7]: > 1000 nM"
< 100,100 to 1000,"Cc1ccnc(Nc2cccc(-c3cnc(CC4CCC(O)CC4)s3)n2)c1 (stereo not drawn) [Compound A-341, 4-{5-[6-(4-methylpyridin-2-ylamino)pyridin-2-yl]thiazol-2-ylmethyl}cyclohexanol]",–
–,–,CC(=O)c1ccc(-c2cccc(Nc3cc(C(N)=O)ccn3)n2)s1 [Compound B-65],"IC50 [1, 6]: 100 to 1000 nM; IC50 [2, 7]: > 1000 nM"
–,–,CNC(=O)c1cc(C)c(-c2cccc(Nc3cc(C)ccn3)n2)s1 [Compound B-9],"IC50 [1, 6]: 100 to 1000 nM; IC50 [2, 7]: 100 to 1000 nM"
> 1000,> 1000,Cc1ccnc(Nc2cccc(-c3cnc([C@H](CCCCNC(=O)OC(C)(C)C)NC(=O)OCc4ccccc4)s3)n2)c1 [Compound A-49],–

# — patent US7803801B2, “Aminopyridine compounds having Syk inhibitory activity” (Japan Tobacco, Inc., priority 2005, dated 2010)
